Source: publication PMC8779240 (Bioorganic & medicinal chemistry letters, 2021)

Key:
Escherichia coli = assay: MIC against E. coli; assay type: cell-based
[1] = system: S. aureus ParC^S80F GyrA^S84L; assay type: cell-based, Staphylococcus aureus; conditions: ParC^S80F/GyrA^S84L strain

SMILES | potency compared with fluoroquinolone parent, MIC data in units of μM [1] | other results
CC(=O)O[C@H]1[C@H](C)[C@H](O)[C@H](C)[C@@H](O)[C@@H](C(C)OC(=O)C(C)(C)CC(=O)O)/C=C/C=C(/C)C(=O)NC2=CC(=O)c3c(c(O)c(C)c4c3C(=O)[C@@](C)(O/C=C/[C@H](O[C@H]3C[C@@H]5OCO[C@@H]5[C@@H](C)O3)[C@H]1C)O4)C2=O (stereo partly shown) [Compound 1, kanglemycin A] |  | Gram-negative activity against E. coli (Escherichia coli): did not show Gram-negative activity
CC(=O)O[C@H]1[C@H](C)[C@H](O)[C@H](C)[C@@H](O)[C@@H](C(C)OC(=O)C(C)(C)CC(=O)O)/C=C/C=C(/C)C(=O)Nc2c3oc4cc(N5CCN(c6cc7c(cc6F)c(=O)c(C(=O)O)cn7C6CC6)CC5)cc(O)c4nc-3c3c4c(c(C)c(O)c3c2=O)O[C@](C)(O/C=C/[C@H](O[C@H]2C[C@@H]3OCO[C@@H]3[C@@H](C)O2)[C@H]1C)C4=O (stereo partly shown) [Compound 5a] |  | fold improvement in MIC compared to ciprofloxacin in units of μM ([1]; MIC in μM): ~ 277 fold; fold improvement in activity compared to ciprofloxacin ([1]; MIC in μg/mL): 64 fold
CC(=O)O[C@H]1[C@H](C)[C@H](O)[C@H](C)[C@@H](O)[C@@H](C(C)OC(=O)C(C)(C)CC(=O)O)/C=C/C=C(/C)C(=O)Nc2c3oc4cc(NC5(c6c(F)cc7c(=O)c(C(=O)O)cn8c7c6OC[C@@H]8C)CC5)cc(O)c4nc-3c3c4c(c(C)c(O)c3c2=O)O[C@](C)(O/C=C/[C@H](O[C@H]2C[C@@H]3OCO[C@@H]3[C@@H](C)O2)[C@H]1C)C4=O (stereo partly shown) [Compound 5b] | surpassed the potency of their fluoroquinolone parents | 
CC(=O)O[C@H]1[C@H](C)[C@H](O)[C@H](C)[C@@H](O)[C@@H](C(C)OC(=O)C(C)(C)CC(=O)O)/C=C/C=C(/C)C(=O)Nc2c3oc4cc(N5Cc6cc(-c7ccc8c(=O)c(C(=O)O)cn(C9CC9)c8c7OC(F)F)ccc6[C@H]5C)cc(O)c4nc-3c3c4c(c(C)c(O)c3c2=O)O[C@](C)(O/C=C/[C@H](O[C@H]2C[C@@H]3OCO[C@@H]3[C@@H](C)O2)[C@H]1C)C4=O (stereo partly shown) [Compound 5c] | surpassed the potency of their fluoroquinolone parents | 
COc1c(N2C[C@@H]3CCCN(c4cc(O)c5nc6c7c8c9c(C)c(O)c7c(=O)c(c-6oc5c4)NC(=O)/C(C)=C\C=C\[C@H](C(C)OC(=O)C(C)(C)CC(=O)O)[C@H](O)[C@@H](C)[C@@H](O)[C@@H](C)[C@H](OC(C)=O)[C@H](C)[C@@H](O[C@H]4C[C@@H]5OCO[C@@H]5[C@@H](C)O4)/C=C/O[C@@](C)(O9)C8=O)[C@@H]3C2)c(F)cc2c(=O)c(C(=O)O)cn(C3CC3)c12 (stereo partly shown) [Compound 5e] | surpassed the potency of their fluoroquinolone parents | 
COc1c(N2C[C@@H]3CCCN(CCCNc4cc(O)c5nc6c7c8c9c(C)c(O)c7c(=O)c(c-6oc5c4)NC(=O)/C(C)=C\C=C\[C@H](C(C)OC(=O)C(C)(C)CC(=O)O)[C@H](O)[C@@H](C)[C@@H](O)[C@@H](C)[C@H](OC(C)=O)[C@H](C)[C@@H](O[C@H]4C[C@@H]5OCO[C@@H]5[C@@H](C)O4)/C=C/O[C@@](C)(O9)C8=O)[C@@H]3C2)c(F)cc2c(=O)c(C(=O)O)cn(C3CC3)c12 (stereo partly shown) [Compound 6e] | surpassed the potency of their fluoroquinolone parents | 
